{
  "source": "patent US5525627A",
  "about": "“Esters of acyl carnitines with long-chain aliphatic alcohols and pharmaceutical compositions containing same having antimycotic activity” (Sigma-Tau Industrie Farmaceutiche Riunite S.p.A., priority 1992, dated 1996)",
  "key": {"C. albicans PG": {"test_system": "C. albicans PG", "experiment": "Systemic experimental infection with Candida albicans in mice", "format": "in vivo, Candida albicans in mice (male CD1)", "conditions": "for % Mortality / Dead/Total: 60 days follow-up; for MST (mean survival time): range of variation in brackets, footnote p ≤ 0.05 (MannWithney \"U\" test), mark lost", "description": "Male CD1 mice (C. River) aged 6 or 13 weeks were used (12-15 animals per group).\nThe pathogenic strain of Candida utilized, i.e. C. albicans PG, was able, when inoculated intravenously, to cause multiple renal lesions and systemic dissemination, provoking death of the animals within 40 days from the challenge.\nA broth culture in Sabouraud broth is prepared from a 48-hour agar slant culture.\nAfter incubation for 48 hours at 37° C., the broth culture is first washed 3 times with sterile saline, then adjusted to a concentration of 2.0×10^6 cells/ml. Volumes of 0.25 ml of this suspension are i.v. injected into the animals, with a resulting infective dose approximately corresponding to DL100.\nST 722 was administered per os following two different protocols:\nI) 100 mg/kg administered at +2, +12, +24, +36 and +48 hours (i.e. 5 administrations in two days) with respect to the challenge.\nII) 100 mg/kg administered twice daily on 6 consecutive days (i.e. 12 adimistrations) starting from day -2 to day +3 with respect to the day of inoculation (day 0).\nAfter the challenge, the animals were followed up for 60 days, and the percent mortality as well as the mean survival time (MST) were evaluated. The statistical significance of the results was evaluated by means of Fisher \"exact test\" and Mann-Withney \"U\" test, respectively."}, "[1]": {"test_system": "Aspergillus fumigatus (2/A)", "experiment": "MIC for filamentous fungi", "format": "cell-based", "conditions": "read-out: Minimal Inhibitory Concentration (MIC)", "in_short": "(§1)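 Fungal conidia (5.0×10^4 CFU/ml) from 72-hour Sabouraud agar growth served as inoculum, following the yeast-like fungi protocol.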"}, "[2]": {"test_system": "Aspergillus fumigatus (1/A)", "experiment": "MIC for filamentous fungi", "format": "cell-based", "conditions": "read-out: Minimal Inhibitory Concentration (MIC)", "in_short": "as §1"}, "Mucor mucedo (ATCC 7941)": {"test_system": "Mucor mucedo (ATCC 7941)", "experiment": "MIC for filamentous fungi", "format": "cell-based", "conditions": "ATCC7941, read-out: Minimal Inhibitory Concentration (MIC)", "in_short": "as §1"}, "[3]": {"test_system": "Aspergillus fumigatus (ATCC 28212)", "experiment": "MIC for filamentous fungi", "format": "cell-based", "conditions": "ATCC28212, read-out: Minimal Inhibitory Concentration (MIC)", "in_short": "as §1"}, "[4]": {"test_system": "Aspergillus fumigatus (C/1)", "experiment": "MIC for filamentous fungi", "format": "cell-based", "conditions": "read-out: Minimal Inhibitory Concentration (MIC)", "in_short": "as §1"}, "[5]": {"test_system": "Aspergillus niger (ATCC 16404)", "experiment": "MIC for filamentous fungi", "format": "cell-based", "conditions": "ATCC16404, read-out: Minimal Inhibitory Concentration (MIC)", "in_short": "as §1"}, "Fusarium sp. (ISS 1)": {"test_system": "Fusarium sp. (ISS 1)", "experiment": "MIC for filamentous fungi", "format": "cell-based", "conditions": "read-out: Minimal Inhibitory Concentration (MIC)", "in_short": "as §1"}, "Penicillium sp. (1302)": {"test_system": "Penicillium sp. (1302)", "experiment": "MIC for filamentous fungi", "format": "cell-based", "conditions": "read-out: Minimal Inhibitory Concentration (MIC)", "in_short": "as §1"}, "[6]": {"test_system": "Microsporum canis (IHEM 3522)", "experiment": "MIC for dermatophytic fungi", "format": "cell-based", "conditions": "35° C., 96 hours, read-out: Minimal Inhibitory Concentration (MIC)", "description": "(§2) The following strains were used: Trichophyton menthagrophytes ATCC 9533, Trichophyton rubrum IHEM 4274, Microsporum canis IHEM 3522, Epydermophyton floccosum IHEM 3495. The tested substances were: ST 722, ST 1033, ST 1037, ST 1050, ST 1051, ST 1052,. ST 1053.\n(§3) The assay was performed following the same procedure described for the yeasts, by using 7-day fungi cultures grown at 30° C. in Potato Dextrose agar, and harvested with Sabouraud broth and Tween 80 (0.5%).\n(§4) After washing with Yeast Nitrogen Base, supplemented with asparagine and glucose (as carbon source), the fungal suspension was fragmented using a tissue grinder until the largest clumps or aggregates were undetectable within the grinder. This fungal suspension was then appropriately diluted in YNB to yield a concentration of 2.0×10^5 infective particles/ml (small mycelium fragments, micro-and macroaleuriospores).\n(§5) Volumes of 100 μl both of the fungal suspensions and substance solutions, two-fold serially diluted in assay medium, were distributed into each well of a microtiter plate (96 wells, round bottom), which was incubated at 35° C. for 96 hours."}, "[7]": {"test_system": "Epidermophyton floccosum (IHEM 3495)", "experiment": "MIC for dermatophytic fungi", "format": "cell-based", "conditions": "35° C., 96 hours, read-out: Minimal Inhibitory Concentration (MIC)", "description": "as §2, §3, §4, §5"}, "[8]": {"test_system": "Trichophyton menthagrophites (ATCC 9533)", "experiment": "MIC for dermatophytic fungi", "format": "cell-based", "conditions": "ATCC9533, 35° C., 96 hours, read-out: Minimal Inhibitory Concentration (MIC)", "description": "as §2, §3, §4, §5"}, "[9]": {"test_system": "Trichophyton rubrum (IHEM 4274)", "experiment": "MIC for dermatophytic fungi", "format": "cell-based", "conditions": "35° C., 96 hours, read-out: Minimal Inhibitory Concentration (MIC)", "description": "as §2, §3, §4, §5"}, "[10]": {"experiment": "Assessment of behaviour and mortality in mice (Irwin's method)", "design": "species or system mice (male Crl:(CD-1)(ICR)BR)", "conditions": "mouse, in vivo; oral, dose 1000 (unit inferred), 4 animals/dose", "description": "(§6) ASSESSMENT OF BEHAVIOUR AND MORTALITY IN MICE\n(§7) The assessment of normal behaviour in mice was carried out following S. Irwin's method (Psychopharmacologia, 13, 222 [1968]). This method allows alterations in some behavioural, neurophysiologic and neurovegetative parameters to be detected, which are directly observable by the researcher. The study was conducted using male Crl:(CD-1)(ICR)BR mice (Charles River-Italy) weighing 22-25 g. following oral administration of the compounds suspended in carboxymethylcellulose (0.5% by weight in H2 O) to groups of 4 animals/dose.\n(§8) The animals were continously kept under observation for five hours following treatment and twice a day in the subsequent five days. Mortality was also observed during the overall test period."}, "mice": {"test_system": "mice", "experiment": "Assessment of behaviour and mortality in mice (Irwin's method)", "design": "species or system mice (male Crl:(CD-1)(ICR)BR)", "conditions": "mouse, in vivo, po", "description": "as §6, §7, §8"}, "[11]": {"conditions": "protocol I: 100 mg/kg per os at +2, +12, +24, +36, +48 hours"}, "[12]": {"conditions": "protocol II: 100 mg/kg per os twice daily, day -2 to day +3"}},
  "data": [
    {"compound": "CCCCCCCCCCCOC(=O)C[C@H](C[N+](C)(C)C)OC(=O)CC(C)C", "note": "[ST 722, isovaleryl-L-carnitine undecyl ester chloride]", "values": [
      {"measurement": "protective effect", "setting": "C. albicans PG; protocol I and II, per os", "value": "only in terms of MST prolongation"},
      {"measurement": "% Mortality", "setting": "C. albicans PG; [11]", "value": 71.4, "unit": "%"},
      {"measurement": "Dead/Total", "setting": "C. albicans PG; [11]", "value": "10/14"},
      {"measurement": "MST (mean survival time)", "setting": "C. albicans PG; protocol I", "value": "37 (25-≥60) days"},
      {"measurement": "percent mortality", "setting": "C. albicans PG; protocol II, per os", "value": "completely unaffected"},
      {"measurement": "% Mortality", "setting": "C. albicans PG; [12]", "value": 71.4, "unit": "%"},
      {"measurement": "Dead/Total", "setting": "C. albicans PG; [12]", "value": "10/14"},
      {"measurement": "MST (mean survival time)", "setting": "C. albicans PG; protocol II", "value": "44 (32-≥60) days"},
      {"measurement": "MIC", "setting": "[1]", "value": 12.5, "unit": "µg/mL"},
      {"measurement": "MIC", "setting": "[2]", "value": 12.5, "unit": "µg/mL"},
      {"measurement": "MIC", "setting": "Mucor mucedo (ATCC 7941)", "value": 50, "unit": "µg/mL"},
      {"measurement": "MIC", "setting": "[3]", "value": 12.5, "unit": "µg/mL"},
      {"measurement": "MIC", "setting": "[4]", "value": 12.5, "unit": "µg/mL"},
      {"measurement": "MIC", "setting": "[5]", "value": 12.5, "unit": "µg/mL"},
      {"measurement": "MIC", "setting": "Fusarium sp. (ISS 1)", "value": 6.25, "unit": "µg/mL"},
      {"measurement": "MIC", "setting": "Penicillium sp. (1302)", "value": 12.5, "unit": "µg/mL"},
      {"measurement": "MIC", "setting": "[6]", "value": 25, "unit": "µg/mL"},
      {"measurement": "MIC", "setting": "[7]", "value": 50, "unit": "µg/mL"},
      {"measurement": "MIC", "setting": "[8]", "value": 25, "unit": "µg/mL"},
      {"measurement": "MIC", "setting": "[9]", "value": 12.5, "unit": "µg/mL"},
      {"measurement": "mortality at 120 h", "setting": "[10]", "value": 0, "unit": "%"},
      {"measurement": "Symptoms", "setting": "mice", "value": "salivation, diarrhoea"}
    ]}
  ]
}
